In ChEMBL document CHEMBL3861947 (Medchemcomm, 2016):

What was measured:
Homo sapiens [1] = test: Effect on hemoglobin levels in stage 3 and 4 chronic kidney disease patient at 200 to 700 mg administered for 28 days measured on day 29 (reference value: 9.91 g/dl); assay type: functional
Homo sapiens [2] = test: Increase in hemoglobin levels in stage 5D chronic kidney disease patient at 200 to 700 mg administered for 28 days measured on day 29 relative to control; assay type: functional
Homo sapiens [3] = test: Increase in hemoglobin levels in stage 3, 4, 5 chronic kidney disease patient at 200 to 700 mg administered for 28 days measured on day 29 relative to control; assay type: functional
Egl nine homolog 1 = Egl nine homolog 1 (Homo sapiens, UniProt Q9GZT9); test: biochemical
Prolyl hydroxylase EGLN2 = Prolyl hydroxylase EGLN2 (Homo sapiens, UniProt Q96KS0); test: Inhibition of recombinant human HIF-PHD1 expressed in insect Sf9 cells using biotinyl-DLDLEMLAPYIPMDDDFQL as substrate after 60 mins by DELFIA
Prolyl hydroxylase EGLN3 = Prolyl hydroxylase EGLN3 (Homo sapiens, UniProt Q9H6Z9); test: Inhibition of recombinant human HIF-PHD3 expressed in insect Sf9 cells using biotinyl-DLDLEMLAPYIPMDDDFQL as substrate after 60 mins by DELFIA
Homo sapiens [4] = test: Increase in endogenous erythropoietin levels in human administered as single oral dose relative to control; assay type: functional
Homo sapiens [5] = test: Increase in hemoglobin levels in renal anemia patient at 40 to 120 mg administered for 4 weeks; assay type: functional

Prolyl hydroxylase EGLN2, sequence (Q96KS0 whole entry): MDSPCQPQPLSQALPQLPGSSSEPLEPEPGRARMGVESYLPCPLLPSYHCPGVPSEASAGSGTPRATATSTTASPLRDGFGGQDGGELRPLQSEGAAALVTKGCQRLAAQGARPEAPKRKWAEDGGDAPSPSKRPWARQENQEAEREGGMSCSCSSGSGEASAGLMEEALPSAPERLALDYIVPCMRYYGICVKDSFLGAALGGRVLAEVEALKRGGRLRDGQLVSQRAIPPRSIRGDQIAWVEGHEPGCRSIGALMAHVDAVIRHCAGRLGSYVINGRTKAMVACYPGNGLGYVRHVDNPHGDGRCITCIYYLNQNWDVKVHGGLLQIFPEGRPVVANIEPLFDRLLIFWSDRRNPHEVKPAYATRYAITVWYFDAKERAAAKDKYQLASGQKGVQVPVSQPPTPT
Prolyl hydroxylase EGLN3, sequence (Q9H6Z9 whole entry): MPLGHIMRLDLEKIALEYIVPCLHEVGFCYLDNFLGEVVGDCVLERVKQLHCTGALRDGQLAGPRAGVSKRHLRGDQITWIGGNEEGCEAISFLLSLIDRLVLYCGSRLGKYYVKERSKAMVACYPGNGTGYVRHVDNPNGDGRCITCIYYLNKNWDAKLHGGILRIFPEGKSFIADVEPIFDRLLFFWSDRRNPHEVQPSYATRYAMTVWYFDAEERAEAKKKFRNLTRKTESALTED
Egl nine homolog 1, sequence (Q9GZT9 whole entry): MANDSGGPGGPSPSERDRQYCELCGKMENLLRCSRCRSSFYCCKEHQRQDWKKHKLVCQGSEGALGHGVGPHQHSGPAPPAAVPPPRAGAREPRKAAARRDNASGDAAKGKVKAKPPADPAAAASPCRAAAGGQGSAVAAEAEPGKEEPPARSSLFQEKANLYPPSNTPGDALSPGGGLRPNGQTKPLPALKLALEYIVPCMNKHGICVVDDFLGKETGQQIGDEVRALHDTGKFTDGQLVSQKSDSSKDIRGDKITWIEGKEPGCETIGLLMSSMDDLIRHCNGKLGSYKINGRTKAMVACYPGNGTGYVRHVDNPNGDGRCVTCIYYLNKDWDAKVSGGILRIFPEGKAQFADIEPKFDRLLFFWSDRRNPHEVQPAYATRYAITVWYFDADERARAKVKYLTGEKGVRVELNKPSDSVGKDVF

O=C(O)CNC(=O)c1ncc(-c2cccc(Cl)c2)cc1O was tested. Which Activity (Homo sapiens [1]) did it give?
Its Activity is 10.54 g/dL.

With O=C(O)CNC(=O)C1C(=O)N(C2CCCCC2)C(=O)N(C2CCCCC2)C1=O [DAPRODUSTAT] as the molecule, how does the Activity (Homo sapiens [2]) read?
The Activity was 71 - 89%.

What about the Activity (Homo sapiens [3]) of the same molecule?
The Activity was 63 - 91%.

Which results are given for Oc1c(-n2ccnn2)cnn1-c1cc(N2CCOCC2)ncn1 [MOLIDUSTAT SODIUM]?
IC50 (Egl nine homolog 1): 280 nM; IC50 (Prolyl hydroxylase EGLN2): 480 nM; IC50 (Prolyl hydroxylase EGLN3): 450 nM

Which “fold change (FC)” value (Homo sapiens [4]) does the source give for Cc1nc(C(=O)NCC(=O)O)c(O)c2ccc(Oc3ccccc3)cc12 [ROXADUSTAT] here?
The value was “<=8”.

And the Activity (Homo sapiens [5])?
Its Activity is “>=1 g/dl”.
